Experimental data as given in ChEMBL document CHEMBL1129822, “Thermal atropisomerism of fully functionalized vancomycin CD, DE, and CDE ring systems” (Bioorg Med Chem Lett, 1997).

Experiments:
Format in all cases: ADME
[1] = The equilibrium constant at 140 degrees C in DMSO
[2] = The equilibrium constant at 140 in ortho dichloro benzene
[3] = The equilibrium constant at 155 degrees C in DMSO
[4] = Half-life at 140 degrees C in DMSO
[5] = Half-life at 140 degrees C in ortho dichloro benzene; conditions: ortho-dichlorobenzene
[6] = Half-life at 155 degrees C in DMSO
[7] = The equilibrium constant at 125 degrees C in DMSO
[8] = Half-life at 125 degrees C in DMSO

Row | k [1] | k [2] | k [3] | half-life [4] | half-life [5] | half-life [6] | k [7] | half-life [8] | SMILES
1 | 0.082 h⁻¹ | 0.029 h⁻¹ | 0.27 h⁻¹ | 3.52 h | 9.77 h | 1.06 h |  |  | COC(=O)[C@H]1NC(=O)[C@@H](c2ccc(OC)c(Br)c2)NC(=O)[C@H](NC(=O)OC(C)(C)C)c2cc(O)c(OC)c(c2)Oc2ccc(cc2[N+](=O)[O-])[C@H]1O[Si](C)(C)C(C)(C)C
2 | 0.071 h⁻¹ | 0.0054 h⁻¹ |  | 4.03 h | 53 h |  |  |  | COC(=O)[C@H]1NC(=O)[C@@H](c2ccc(OC)c(Br)c2)NC(=O)[C@H](NC(=O)OC(C)(C)C)c2cc(O)c(OC)c(c2)Oc2ccc(cc2Cl)[C@H]1O[Si](C)(C)C(C)(C)C
3 | 2.06 h⁻¹ |  |  | 0.092 h |  |  | 0.88 h⁻¹ | 0.28 h | COc1c(O)cc2cc1Oc1ccc(cc1[N+](=O)[O-])[C@@H](O)[C@@H](NC(=O)OC(C)(C)C)C(=O)N[C@@H](CC(N)=O)C(=O)N[C@H]2C(=O)OC(C)(C)C
